Experimental data as given in paper PMC7955127, “Preclinical small molecule WEHI-7326 overcomes drug resistance and elicits response in patient-derived xenograft models of human treatment-refractory tumors” (Cell Death & Disease, 2021).

Assays:
[1] = test system: LoVo (colon carcinoma) xenograft; assay: LoVo tumor xenograft in nude mice; assay type: in vivo, Balb/c nude mice
Method: LoVo (4 × 10^6), PC3 (3 × 10^6) or MDA-MB-231 LNA DRE (10^6) cells were collected by trypsination and injected with 50 μl 1:1 PBS:Matrigel (v/v) subcutaneously on the right flank of 18 female (LoVo), 40 male (PC3) or into 4th mammary fat pad of 40 female (MDA231) Balb/c nude mice. Tumor growth was monitored and average tumor size at commencement of dosing was 100 mm^3. Mice were randomized into 3 arms of each 5 (LoVo), 10 (PC3) or 12 (MDA23) mice respectively and treatment with vehicle (saline), WEHI-7326 (biweekly) or docetaxel (weekly) was administered via tail vein injection. Tumor volumes were measured at least twice weekly with calipers and the experiments were terminated when tumors in the control group started exceeding 1500 mm^3. For LoVo, both vehicle and 25 mg/kg WEHI-7326 groups were harvested 24 h, but 20 mg/kg WEHI-7326 group harvested 1 h post final dose. For PC3, docetaxel group was not harvested in an attempt to grow out resistant tumors.

24 T TNBC PDX = assay: TNBC PDX model 24T; assay type: in vivo, NOD-SCID-IL2Rγc–/– mice
Method: Cohorts of about 30 female mice were seeded with thawed single cell suspensions of early passage human breast tumors (passage 2 or 3). Briefly, 150,000–250,000 cells were resuspended in 10 µl of transplantation buffer (50% fetal calf serum, 10% of a 0.04% trypan blue solution and 40% PBS) and growth-factor-reduced Matrigel [BD] at a ratio of 3:1, and injected into the cleared mammary fat pads of 3- or 4-week-old NOD-SCID-IL2Rγc–/– female mice. Mice were monitored for tumor development three times weekly and tumor size measured using digital Vernier calipers. Tumor volume was estimated by measuring the minimum and maximum tumor diameters using the formula: (minimum diameter)^2 x (maximum diameter)/2. Once tumors arose, mice were randomized into treatment arms. Treatment was initiated when the tumor volume reached 80–120 mm^3. Randomization and tumor measurements were managed using the Study Director software (v 3.0, studylog). Mice were sacrificed at the first measurement where tumor volume exceeded 600 mm^3, or if their health deteriorated for reasons other than disease progression or drug toxicity (censored event).
Mice were treated with either docetaxel (10 mg/kg; i.p.; once), cisplatin (4 mg/kg; i.p.; once) or WEHI-7326 (20 mg/kg; twice a week (Monday and Thursday); i.v.). Vehicle treated mice were administered with the vehicle for WEHI-7326. Docetaxel was resuspended at 2 mg/ml in PBS:Tween-80:ethanol = 90:5:5 (v/v/v). WEHI-7326 was resuspended at 2 mg/ml in saline.

[2] = test system: MDA-MB-231, H1437, LoVo and PC3 cells; assay: Anti-proliferative activity in a panel of cancer cell lines (CellTiterGlo, 72 h); assay type: cell-based, human
Method: Cells were plated at a density of between 500 to 5000 cells per well for adherent cell lines depending on doubling time, and 15,000 cells per well for lymphoblastic leukemia cell lines, in a 96-well plate in 200 μl of growth media. Plates were incubated overnight at 37 °C before adding the inhibitors. Inhibitors were serially diluted from the stock solutions in complete medium and added to the cells. Incubation in the presence of inhibitors was continued for […]. Cell viability was assessed by the AlamarBlue (Invitrogen) or CellTiterBlue/Glo (Promega) method according to manufacturer’s instructions. The curve fits and IC50 values were generated in PRISM (GraphPad, San Diego, CA).

COc1ccc(CNc2nc(NCc3ccc(CN)cc3)nc(NN3CC(=O)NC3=O)n2)cc1 [WEHI-7326] was tested, and the Body weight loss ([1]; LoVo xenograft mice, 25 mg/kg, 9 doses in total) was ~ 6%, the Tumor growth inhibition ([1]; LoVo xenograft, 25 mg/kg biweekly i.v.) was 60% and the “Adverse effects in treatment arm” value (24 T TNBC PDX; 24 T PDX mice, 20 mg/kg i.v. twice a week, n = 7) was 1 sick, 1 found dead, 1 with back leg paralysis. For the same molecule, the Survival time (24 T TNBC PDX; 24 T PDX, docetaxel 10 mg/kg i.p. once, WEHI-7326 20 mg/kg i.v. biweekly) was 45 days and the “Anti-proliferative activity relative to myoseverin B” value [2] was “over 10 fold”.
